The source made the active and inactive calls. No cut-off for these calls is given here.
Key:
[1] = Cmax in dog; format: ADME, organism-based, Canis lupus familiaris; conditions: in vivo
[2] = Inhibition of HCV genotype 1a C-terminal polyhistidine-tagged NS5B Cdelta21 RdRp expressed in Escherichia coli using DCoH75 as template assessed as incorporation of [33P]-CTP in polynucleotide sequence after 2 hrs by scintillation counting analysis; design: species or system Hepatitis C virus subtype 1a
[3] = AUC (0 to 24 hrs) in dog at 3 mg/kg, po; format: ADME, organism-based, Canis lupus familiaris; design: time < 24 hr, dose 3 mg/kg, route oral; conditions: plasma
[4] = Clearance in iv dosed dog; format: ADME, organism-based, Canis lupus familiaris; conditions: in vivo
[5] = Inhibition of HCV genotype 3a C-terminal polyhistidine-tagged NS5B Cdelta21 RdRp expressed in Escherichia coli using DCoH75 as template assessed as incorporation of [33P]-CTP in polynucleotide sequence after 2 hrs by scintillation counting analysis; design: species or system Hepatitis C virus subtype 3a
[6] = Oral bioavailability in monkey; format: ADME, organism-based, Macaca mulatta; conditions: rhesus monkey, in vivo
[7] = test system: RNA-directed RNA polymerase (Hepacivirus hominis), O39930 [G554D]; experiment: Inhibition of HCV NS5B RdRp G554D mutant palm allosteric site
RNA-directed RNA polymerase (Hepacivirus hominis), O39930 [G554D], sequence (O39930 entry or part of it G554D): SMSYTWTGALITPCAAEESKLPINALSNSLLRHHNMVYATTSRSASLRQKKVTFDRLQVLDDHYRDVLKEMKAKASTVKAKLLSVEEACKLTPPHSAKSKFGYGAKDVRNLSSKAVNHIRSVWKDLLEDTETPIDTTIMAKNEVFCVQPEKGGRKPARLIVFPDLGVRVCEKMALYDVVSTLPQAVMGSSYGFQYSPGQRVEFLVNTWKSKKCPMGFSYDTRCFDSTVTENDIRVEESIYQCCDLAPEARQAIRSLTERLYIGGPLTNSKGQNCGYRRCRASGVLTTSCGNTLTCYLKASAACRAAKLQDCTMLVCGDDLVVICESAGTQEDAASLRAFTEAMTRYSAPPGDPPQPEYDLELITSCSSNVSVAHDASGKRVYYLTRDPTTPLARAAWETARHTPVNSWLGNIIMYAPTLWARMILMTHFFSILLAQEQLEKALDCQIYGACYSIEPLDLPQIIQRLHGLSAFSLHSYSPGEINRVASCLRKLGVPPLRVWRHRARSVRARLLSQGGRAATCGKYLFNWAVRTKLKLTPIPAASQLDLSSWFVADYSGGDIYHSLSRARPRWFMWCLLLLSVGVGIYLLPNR

[8] = Clearance in iv dosed monkey; format: ADME, organism-based, Macaca mulatta; conditions: rhesus monkey, in vivo
[9] = test system: RNA-directed RNA polymerase (Hepacivirus hominis), O39930 [M414T]; experiment: Inhibition of HCV NS5B RdRp M414T mutant active site
RNA-directed RNA polymerase (Hepacivirus hominis), O39930 [M414T], sequence (O39930 entry or part of it M414T): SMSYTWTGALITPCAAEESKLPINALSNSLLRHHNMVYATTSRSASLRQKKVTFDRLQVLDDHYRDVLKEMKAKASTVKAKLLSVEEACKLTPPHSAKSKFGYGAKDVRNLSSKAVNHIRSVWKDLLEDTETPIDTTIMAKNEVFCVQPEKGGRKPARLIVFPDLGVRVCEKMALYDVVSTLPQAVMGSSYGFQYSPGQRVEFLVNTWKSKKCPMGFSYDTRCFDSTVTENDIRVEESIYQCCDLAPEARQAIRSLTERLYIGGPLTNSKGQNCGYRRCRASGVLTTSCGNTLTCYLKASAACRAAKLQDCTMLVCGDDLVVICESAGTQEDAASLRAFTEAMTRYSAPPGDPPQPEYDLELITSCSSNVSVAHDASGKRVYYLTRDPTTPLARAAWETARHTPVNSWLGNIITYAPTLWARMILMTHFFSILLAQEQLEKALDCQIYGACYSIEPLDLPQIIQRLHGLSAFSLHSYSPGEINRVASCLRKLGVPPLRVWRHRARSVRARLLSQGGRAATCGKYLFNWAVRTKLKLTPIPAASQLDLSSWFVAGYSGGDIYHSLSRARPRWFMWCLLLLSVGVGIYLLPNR

[10] = test system: RNA-directed RNA polymerase (Hepacivirus hominis), O39930 [M414T]; experiment: Inhibition of HCV NS5B RdRp M414T mutant palm allosteric site
[11] = test system: RNA-directed RNA polymerase (Hepacivirus hominis), O39930 [C316Y]; experiment: Inhibition of HCV NS5B RdRp C316Y mutant palm allosteric site
RNA-directed RNA polymerase (Hepacivirus hominis), O39930 [C316Y], sequence (O39930 entry or part of it C316Y): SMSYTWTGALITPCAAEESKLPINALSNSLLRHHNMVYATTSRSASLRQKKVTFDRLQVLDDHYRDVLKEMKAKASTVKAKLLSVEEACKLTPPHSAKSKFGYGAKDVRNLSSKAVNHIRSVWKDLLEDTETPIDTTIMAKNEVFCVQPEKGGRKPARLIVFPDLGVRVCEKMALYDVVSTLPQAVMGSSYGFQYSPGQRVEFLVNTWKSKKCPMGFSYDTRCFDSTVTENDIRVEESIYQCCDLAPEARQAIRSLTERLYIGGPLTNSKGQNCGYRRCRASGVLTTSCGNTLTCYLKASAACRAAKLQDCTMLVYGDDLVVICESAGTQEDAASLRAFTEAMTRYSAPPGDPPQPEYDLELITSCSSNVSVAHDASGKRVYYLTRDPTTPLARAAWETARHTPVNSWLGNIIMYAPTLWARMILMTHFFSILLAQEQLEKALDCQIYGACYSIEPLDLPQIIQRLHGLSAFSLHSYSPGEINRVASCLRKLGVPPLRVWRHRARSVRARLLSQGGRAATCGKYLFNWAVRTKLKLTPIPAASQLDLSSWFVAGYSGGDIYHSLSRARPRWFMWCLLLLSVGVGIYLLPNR

[12] = Inhibition of HCV genotype 1b C-terminal polyhistidine-tagged NS5B Cdelta21 RdRp expressed in Escherichia coli using DCoH75 as template assessed as incorporation of [33P]-CTP in polynucleotide sequence after 2 hrs by scintillation counting analysis; design: species or system Hepatitis C virus subtype 1b
[13] = Cmax in monkey; format: ADME, organism-based, Macaca mulatta; conditions: rhesus monkey, in vivo
[14] = AUC (0 to 6 hrs) in rat at 10 mg/kg, po; format: ADME, organism-based; design: time < 6 hr, dose 10 mg/kg, route oral; conditions: plasma
[15] = AUC (0 to 24 hrs) in monkey at 3 mg/kg, po; format: ADME, organism-based, Macaca mulatta; design: time < 24 hr, dose 3 mg/kg, route oral; conditions: rhesus monkey, plasma
Hepatitis C virus = experiment: Antiviral activity against HCV infected in human hepatoma cells assessed as inhibition of viral RNA replication after 3 days by real time PCR analysis; format: functional, organism-based, Hepacivirus hominis; conditions: 72 h
[16] = test system: RNA-directed RNA polymerase (Hepacivirus hominis), O39930 [G554D]; experiment: Inhibition of HCV NS5B RdRp G554D mutant active site
[17] = test system: RNA-directed RNA polymerase (Hepacivirus hominis), O39930 [C316Y]; experiment: Inhibition of HCV NS5B RdRp C316Y mutant active site
[18] = Half life in monkey at 1 mg/kg, iv; format: ADME, organism-based, Macaca mulatta; design: dose 1 mg/kg, route intravenous; conditions: rhesus monkey, in vivo
[19] = Half life in dog at 1 mg/kg, iv; format: ADME, organism-based, Canis lupus familiaris; design: dose 1 mg/kg, route intravenous; conditions: in vivo
[20] = Oral bioavailability in dog; format: ADME, organism-based, Canis lupus familiaris; conditions: in vivo
[21] = AUC (0 to 24 hrs) in rat at 10 mg/kg, po; format: ADME, organism-based; design: time < 24 hr, dose 10 mg/kg, route oral; conditions: plasma
[22] = Mutagenic activity in micronucleus (unknown origin); format: ADME
Salmonella typhimurium = experiment: Mutagenic activity in Salmonella typhimurium by mini Ames test; format: toxicity, organism-based; conditions: salmonella enterica subsp. enterica serovar typhimurium
[23] = Oral bioavailability in rat; format: ADME, organism-based; conditions: in vivo
[24] = Inhibition of HCV genotype 2a C-terminal polyhistidine-tagged NS5B Cdelta21 RdRp expressed in Escherichia coli using DCoH75 as template assessed as incorporation of [33P]-CTP in polynucleotide sequence after 2 hrs by scintillation counting analysis; design: species or system Hepatitis C virus subtype 2a
[25] = Inhibition of HCV genotype 4a C-terminal polyhistidine-tagged NS5B Cdelta21 RdRp expressed in Escherichia coli using DCoH75 as template assessed as incorporation of [33P]-CTP in polynucleotide sequence after 2 hrs by scintillation counting analysis; design: species or system Hepatitis C virus subtype 4a
[26] = Clearance in iv dosed rat; format: ADME, organism-based; conditions: in vivo
[27] = Cmax in rat; format: ADME, organism-based; conditions: in vivo
[28] = Half life in rat at 3 mg/kg, iv; format: ADME, organism-based; design: dose 3 mg/kg, route intravenous; conditions: in vivo
Rattus norvegicus [29] = species: Rattus norvegicus; experiment: Ratio of drug level from liver to plasma in rat assessed as 4-Fluoro-6-((7-fluoro-4-oxo-3,4-dihydroquinazolin-6-yl)methyl)-8-(2-oxo-1,2-dihydropyridin-3-yl)-6H-furo[2,3-e]indole-7-carboxylic acid after 6 hrs; conditions: other tissue
Rattus norvegicus [30] = experiment: AUC (0 to 6 hrs) in rat assessed as 4-Fluoro-6-((7-fluoro-4-oxo-3,4-dihydroquinazolin-6-yl)methyl)-8-(2-oxo-1,2-dihydropyridin-3-yl)-6H-furo[2,3-e]indole-7-carboxylic acid at 10 mg/kg, po; format: ADME, organism-based, Plasma; design: time < 6 hr, dose 10 mg/kg, route oral; conditions: in vivo

## O=C(O)c1c(-c2ccc[nH]c2=O)c2c3occc3c(F)cc2n1Cc1cc2c(=O)[nH]cnc2cc1F
[1]
  Cmax: 100 nM
[2]
  IC50: 7 nM
[3]
  AUC(0-t) at 24 h: 0.4 µM·h
[4]
  clearance: 11 mL/min/kg
[5]
  IC50: > 5000 nM
[6]
  bioavailability: 5%
[7]
  inhibition: inactive
[8]
  clearance: 0.6 mL/min/kg
[9]
  inhibition: Active
[10]
  inhibition: inactive
[11]
  inhibition: inactive
[12]
  IC50: 5 nM
[13]
  Cmax: 800 nM
[14]
  AUC(0-t) at 6 h: 4.3 µM·h
[15]
  AUC(0-t) at 24 h: 8 µM·h
Hepatitis C virus
  EC50: 6 nM
[16]
  inhibition: Active
[17]
  inhibition: Active
[18]
  half-life: 8.9 h
[19]
  half-life: 3.2 h
[20]
  bioavailability: 4%
[21]
  AUC(0-t) at 24 h: 10 µM·h
[22]
  Activity: Non-toxic
Salmonella typhimurium
  Activity: Non-toxic
[23]
  bioavailability: 0.7%
[24]
  IC50: > 5000 nM
[25]
  IC50: > 5000 nM
[26]
  clearance: 0.2 mL/min/kg
[27]
  Cmax: 1400 nM
[28]
  half-life: 9.4 h

## NC(=O)c1ccc(F)c(Cn2c(C(=O)NS(=O)(=O)C3CC3)c(-c3ccc[nH]c3=O)c3cc(C(F)(F)F)ccc32)c1
[12]
  IC50: 6 nM
Hepatitis C virus
  EC50: 170 nM

## CC(C)(C)C(=O)OCn1cnc2cc(F)c(Cn3c(C(=O)O)c(-c4ccc[nH]c4=O)c4c5occc5c(F)cc43)cc2c1=O
[12]
  IC50: 13 nM
Hepatitis C virus
  EC50: 10 nM

## CCc1cc2c(-c3ccc[nH]c3=O)c(C(=O)NS(=O)(=O)C3CC3)n(Cc3cc(C(N)=O)ccc3F)c2cc1F
[12]
  IC50: 5 nM
Hepatitis C virus
  EC50: 60 nM

## CCc1ccc2c(c1)c(-c1ccc[nH]c1=O)c(C(=O)NS(=O)(=O)C1CC1)n2Cc1cc(C(N)=O)ccc1F
[12]
  IC50: 12 nM
Hepatitis C virus
  EC50: 30 nM

## CCc1ccc2c(c1)c(-c1ccc[nH]c1=O)c(C(=O)NS(=O)(=O)C1CC1)n2Cc1cc(S(N)(=O)=O)ccc1F
[12]
  IC50: 5 nM
Hepatitis C virus
  EC50: 80 nM

## Cc1nc2cc(F)c(Cn3c(C(=O)O)c(-c4ccc[nH]c4=O)c4c5occc5c(F)cc43)cc2c(=O)[nH]1
[12]
  IC50: 4 nM
[14]
  AUC(0-t) at 6 h: 0.85 µM·h
Hepatitis C virus
  EC50: 20 nM

## Cn1c(=O)[nH]c(=O)c2cc(Cn3c(C(=O)O)c(-c4ccc[nH]c4=O)c4c5occc5c(F)cc43)c(F)cc21
[12]
  IC50: 6 nM
Hepatitis C virus
  EC50: 300 nM

## CN(C)CCCOC(=O)c1c(-c2ccc[nH]c2=O)c2c3occc3c(F)cc2n1Cc1cc2c(=O)[nH]cnc2cc1F
Rattus norvegicus [29]
  Ratio: 0.4
[12]
  IC50: 110 nM
Hepatitis C virus
  EC50: 11 nM
Rattus norvegicus [30]
  AUC: 2.3 µM·h

## Cn1cnc2cc(F)c(Cn3c(C(=O)O)c(-c4ccc[nH]c4=O)c4c5occc5c(F)cc43)cc2c1=O
[12]
  IC50: 3 nM
[14]
  AUC(0-t) at 6 h: 0.17 µM·h
Hepatitis C virus
  EC50: 250 nM

## NC(=O)c1ccc(F)c(Cn2c(C(=O)NS(=O)(=O)C3CC3)c(-c3ccc[nH]c3=O)c3cc(C(F)(F)F)c(F)cc32)c1
[12]
  IC50: 8 nM
Hepatitis C virus
  EC50: 150 nM

## NC(=O)c1ccc(F)c(Cn2c(C(=O)NS(=O)(=O)C3CC3)c(-c3ccc[nH]c3=O)c3c4occc4c(F)cc32)c1
[12]
  IC50: 5 nM
[14]
  AUC(0-t) at 6 h: 0.21 µM·h
Hepatitis C virus
  EC50: 10 nM

## O=C(O)c1c(-c2ccc[nH]c2=O)c2c3occc3c(F)cc2n1Cc1cc2c(=O)[nH]c(=O)[nH]c2cc1F
[12]
  IC50: 4 nM
[14]
  AUC(0-t) at 6 h: 8.3 µM·h
Hepatitis C virus
  EC50: 6 nM

## CCc1ccc2c(c1)c(-c1ccc[nH]c1=O)c(C(=O)NS(=O)(=O)C1CC1)n2Cc1cc(O)ccc1F
[12]
  IC50: 5 nM
Hepatitis C virus
  EC50: 100 nM

## CCc1ccc2c(c1)c(-c1ccc[nH]c1=O)c(C(=O)NS(=O)(=O)C1CC1)n2Cc1cc(F)ccc1F
[12]
  IC50: 3 nM
Hepatitis C virus
  EC50: 40 nM

## NC(=O)c1ccc(F)c(Cn2c(C(=O)O)c(-c3ccc[nH]c3=O)c3c4occc4c(F)cc32)c1
[12]
  IC50: 4 nM

## CC(=O)c1ccc(F)c(Cn2c(C(=O)O)c(-c3ccc[nH]c3=O)c3c4occc4c(F)cc32)c1
[12]
  IC50: 20 nM
[14]
  AUC(0-t) at 6 h: 8.8 µM·h
Hepatitis C virus
  EC50: 70 nM

## CN(C)CCCCOC(=O)c1c(-c2ccc[nH]c2=O)c2c3occc3c(F)cc2n1Cc1cc2c(=O)[nH]cnc2cc1F
[12]
  IC50: 75 nM
Hepatitis C virus
  EC50: 14 nM
Rattus norvegicus [30]
  AUC: 0.79 µM·h

## Nc1nc2cc(F)c(Cn3c(C(=O)O)c(-c4ccc[nH]c4=O)c4c5occc5c(F)cc43)cc2c(=O)[nH]1
[12]
  IC50: 7 nM
[14]
  AUC(0-t) at 6 h: 0.02 µM·h
Hepatitis C virus
  EC50: 7 nM

## CCc1ccc2c(c1)c(-c1ccc[nH]c1=O)c(C(=O)NS(=O)(=O)C1CC1)n2Cc1cc(C#N)ccc1F
[12]
  IC50: 7 nM
Hepatitis C virus
  EC50: 80 nM

## Cc1ccc2c(c1)c(-c1ccc[nH]c1=O)c(C(=O)NS(=O)(=O)C1CC1)n2Cc1cc(C(N)=O)ccc1F
[12]
  IC50: 4 nM

## CCc1ccc2c(c1)c(-c1ccc[nH]c1=O)c(C(=O)NS(=O)(=O)C1CC1)n2Cc1cc(S(C)(=O)=O)ccc1F
[12]
  IC50: 8 nM
Hepatitis C virus
  EC50: 80 nM

## Cc1cc2c(-c3ccc[nH]c3=O)c(C(=O)NS(=O)(=O)C3CC3)n(Cc3cc(C(N)=O)ccc3F)c2cc1F
[12]
  IC50: 4 nM
Hepatitis C virus
  EC50: 50 nM

## CCOC(=O)c1c(-c2ccc[nH]c2=O)c2c3occc3c(F)cc2n1Cc1cc2c(=O)n(COC(=O)C(C)(C)C)cnc2cc1F
[12]
  IC50: 400 nM
Hepatitis C virus
  EC50: 69 nM

## O=C(O)c1ccc(F)c(Cn2c(C(=O)O)c(-c3ccc[nH]c3=O)c3c4occc4c(F)cc32)c1
[12]
  IC50: 5 nM
Hepatitis C virus
  EC50: 700 nM

## CC(C)(C)C(=O)OCn1cccc(-c2c(C(=O)O)n(Cc3cc4c(=O)[nH]cnc4cc3F)c3cc(F)c4ccoc4c23)c1=O
[12]
  IC50: 51 nM
Hepatitis C virus
  EC50: 67 nM

## CCOC(=O)c1c(-c2ccc[nH]c2=O)c2c3occc3c(F)cc2n1Cc1cc2c(=O)[nH]cnc2cc1F
[12]
  IC50: 9 nM
Hepatitis C virus
  EC50: 22 nM
Rattus norvegicus [30]
  AUC: 0.22 µM·h

## O=C(O)c1c(-c2ccc[nH]c2=O)c2c3occc3c(F)cc2n1Cc1cc2[nH]c(=O)[nH]c2cc1F
[12]
  IC50: 7 nM
[14]
  AUC(0-t) at 6 h: 4 µM·h
Hepatitis C virus
  EC50: 10 nM

## O=C(O)c1c(-c2ccc[nH]c2=O)c2c3occc3c(F)cc2n1Cc1cc2[nH]c(=O)oc2cc1F
[12]
  IC50: 2000 nM
Hepatitis C virus
  EC50: 2000 nM

From ChEMBL document CHEMBL3124829, “Discovery of SCH 900188: A Potent Hepatitis C Virus NS5B Polymerase Inhibitor Prodrug As a Development Candidate” (ACS Med Chem Lett, 2014)
